# Assay results as given in paper PMC7396128 (Nature medicine, 2019).
# Tests used:
# HIV-1IIIB [1] = test: ultrastructural analysis of HIV-1 virions by electron microscopy; assay type: cell-based; settings: 500 nM
# HIV-1 = settings: 500 nM, 12 hpi, MOI 70
# HIV-1IIIB [2] = assay type: cell-based; settings: MT-4 cells
# MT-4 cells = settings: read-out: mean 50% cytotoxicity concentration, CC50
# HIV-1YU2 = test: antiviral efficacy in HIV-1YU2-infected humanized NOG mice; assay type: in vivo
structure (smiles),measurement,setting,value
"COC(=O)N[C@H](C(=O)N[C@@H](Cc1ccccc1)[C@@H](O)CN(Cc1ccc(-c2ccccn2)cc1)NC(=O)[C@@H](NC(=O)OC)C(C)(C)C)C(C)(C)C [ATV, atazanavir]",capsid morphology in released virions,HIV-1IIIB [1],predominantly contained immature Gag/Gag-Pol lattices
"C[C@@H]1CCO[C@H]2Cn3cc(C(=O)NCc4ccc(F)cc4F)c(=O)c(O)c3C(=O)N12 [DTG, dolutegravir]",effect on capsid and vDNA fluorescent signals,HIV-1,did not alter either fluorescent signal
Cc1[nH]c2ccccc2c1CC(=O)N[C@@H](Cc1ccccc1)C(=O)N(C)c1ccccc1 [PF74],selectivity index (CC50/EC50 ratio),HIV-1IIIB [2],26
same,fold weaker antiviral potency than GS-CA1,HIV-1IIIB [2]; HIV-1IIIB,"> 5,000 fold"
same,EC50,"HIV-1IIIB [2]; read-out: mean EC50, HIV-1IIIB, n = 43",1.24 µM
same,CC50,MT-4 cells,32.2 ± 9.3 µM
"Cc1cc(/C=C/C#N)cc(C)c1Nc1ccnc(Nc2ccc(C#N)cc2)n1 [RPV, rilpivirine]",treated animals with rapid emergence of drug resistance,HIV-1YU2; 160 mg/kg every 2 weeks,80%
same,animals returning to baseline viremia by week 10,HIV-1YU2; 160 mg/kg s.c. daily for 7 days then every two weeks,4/5
same,capsid levels,HIV-1,100 % of control
same,vDNA,HIV-1,14 % of control
